Holding throughout (assay): growth of human tumour cells (NCI), 48 h
The test system of test [1] is COLO 205 colon.
Test [2] deals with CCRF-CEM leukemia.
Test [3] relates to SK-MEL-2 melanoma.
Test [4] deals with K-562 leukemia.
In test [5] the test system is IGROV1 ovarian.
Test [6] has as its system BT-549 breast.
Test [7] has as its system NCI-H226 lung.
For test [8], the system named is A549 NSCLC.
Test [9] has as its system MALME-3M melanoma.
The subject of test [10] is MDA-MB-435.

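1) Cells in 96-well plates. 2) Compound, 48 h, 5 concentrations. 3) Linear interpolation between surrounding doses. 4) Unreached endpoint = highest concentration. GI50 is the concentration that inhibits growth by half. At the TGI there is no net growth.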 Bounds are passed on as bounds.

Consider `CCOC(=O)n1c2ccccc2c(=O)n1CCO`, for which the TGI in [1], in test [2], in [3], in [4], in test [5] and in test [6] was above 100 µM throughout. The TGI in test [7], in [8] and in [9] was above 100 µM each time.

Take `O=C(Nc1cccc(-n2cc(-c3ccncc3)c(-c3ccc(O)c(Cl)c3)n2)c1)Nc1ccc(Cl)c(Cl)c1`: the GI50 was 2.5 µM in [1]; 1.39 µM in test [2]; 2.35 µM in test [5]; 1.8 µM in test [6]; 3.01 µM in test [7]; 1.54 µM in test [8]. The GI50 is 2.11 µM in test [9] and 1.96 µM in [10]. Moreover, the TGI in test [1] is 6.23 µM; in test [2] it was 5.73 µM; in test [5] it was 6.78 µM; in test [6] it was 4.32 µM; in test [7], 9.53 µM; in test [8], 7.27 µM. The TGI in test [9] was 6.86 µM; in test [10], 5.92 µM.

In the case of `O=C(Nc1ccc(Br)cc1)Nc1cccc(Br)c1`, the GI50 is 4.1 µM in test [1]; 5.7 µM in test [3]; 5.82 µM in test [5]; above 100 µM in test [6]; 47.1 µM in [7]; 8.69 µM in test [9]. Further, the TGI in [1], in test [3], in test [5], in test [6], in test [7] and in test [9] was above 100 µM throughout.

In the case of `Cc1ccc(-c2nc(C(Cl)Cl)nc3cc(C)nn23)cc1`, the GI50 in [1] is 1.04 µM; in test [2], 4.82 µM; in [3], above 100 µM; in test [4], 2.3 µM; in test [6], 9.68 µM; in test [7] it was above 100 µM. Also, the GI50 in test [8] is 1.33 µM. The TGI in test [1] is 3.41 µM; in [2], above 100 µM; in test [3] it was above 100 µM; in [4], above 100 µM; in [6], above 100 µM; in [7], above 100 µM. The compound also showed a TGI in test [8] of 6.21 µM.

For `Cc1ccc(NC(=O)c2ccc(NC3=C(Cl)C(=O)N(Cc4ccccc4)C3=O)cc2)cc1Cl`, the GI50 in test [1] is 13.5 µM; in test [2] it was 1.02 µM; in test [3] it was 12.5 µM; in test [4], 2.23 µM; in test [5] it was 0.49 µM; in test [6], 1.04 µM. Moreover, the GI50 in test [7] is 8.69 µM; in [8], 12.9 µM; in test [10] it was 24 µM. Further, the TGI in test [1] was above 100 µM; in test [2] it was 3.54 µM; in test [3] it was 34.1 µM; in test [4], 12 µM; in [5], 2.64 µM; in [6], 5.09 µM. The TGI in test [7] is 23.5 µM; in test [8], 25.6 µM; in [10], above 100 µM.

For `CC(C)c1cc(C(C)C)c(Cl)c(Cl)c1O` (tested in a mixture with another compound), the TGI is 39.8 µM in test [1]; above 100 µM in [2]; 46.5 µM in test [3]; 37.9 µM in test [4]; 81.1 µM in test [5]; 40.1 µM in [6]. Moreover, the values for the TGI in test [8], in test [9] and in test [10] were above 100 µM, 52.9 µM and 46.1 µM, respectively.

On to `O=[N+]([O-])c1ccc(/C=C\c2ccc3c(c2)OCO3)c([N+](=O)[O-])c1`, for which the TGI in test [1] was found to be 32.3 µM; in test [2] it was 33.7 µM; in [3], 35.3 µM; in test [4], 50.2 µM; in test [5] it was 24.7 µM; in [6], 34.2 µM. Besides, the TGI in test [8] worked out at 73.8 µM; in test [9], 46.5 µM; in [10] it was 22.1 µM.

As for `COc1cc2c3c(n(CCCN4CCSCC4)c(=O)c2cc1OC)-c1cc2c(cc1C3=O)OCO2`, the GI50 in test [1] is above 100 µM; in [3] it was 16.8 µM; in test [4], 20.2 µM; in [5], 28.8 µM; in test [6] it was 56.7 µM; in test [7], 59.9 µM. The results for the GI50 in [8], in test [9] and in [10] were above 100 µM, 67.5 µM and above 100 µM, respectively. For the same compound, the TGI in [1] is above 100 µM; in [3], 36.4 µM; in test [4], 47.8 µM; in test [5], 86.2 µM; in test [6], above 100 µM; in test [7], above 100 µM. Besides, the TGI in test [8], in test [9] and in test [10] was above 100 µM in each case.

For `O=C1C2C(C(=O)N1CC[Se][Se]CCN1C(=O)C3C(C1=O)[C@H]1C=C[C@@H]3C1)[C@H]1C=C[C@@H]2C1` (stereo partly specified), the GI50 in [1] is 2.12 µM; in [2], 0.566 µM; in [3] it was 1.98 µM; in test [4] it was 1.63 µM; in test [5], 0.22 µM; in test [7], 0.219 µM. For the same compound, the GI50 is 0.447 µM in test [8], 0.277 µM in [9] and 0.267 µM in test [10]. Further, the TGI in [1] was 4.98 µM; in test [2], 4.02 µM; in [3] it was 5.78 µM; in test [4], above 38.5 µM; in [5], 0.556 µM; in [7] it was 0.495 µM. For the same compound, the values for the TGI in test [8], in [9] and in [10] were 4.72 µM, 1.08 µM and 0.744 µM, respectively.

Regarding `CCN(CC)CCCNc1c2ccc(Cl)cc2nc2ccc(OC)cc12`, the GI50 was 0.0398 µM in test [1]; 0.0473 µM in [2]; 1.69 µM in test [3]; 0.0308 µM in [4]; 1.78 µM in test [6]; 1.84 µM in [7]. Besides, the GI50 was 0.0582 µM in [8], 1.6 µM in test [9] and 0.0614 µM in [10]. Further, the TGI in test [1] is 2.01 µM; in [2], 3.67 µM; in test [3], 3.31 µM; in test [4] it was 6.08 µM; in test [6] it was 3.63 µM; in [7], 4.88 µM. For the same compound, the TGI amounted to 5.83 µM in test [8], 3.38 µM in test [9] and 2.04 µM in [10].
